Among the data in US11253525B2, “Inhibitors of indoleamine 2,3-dioxygenase and methods of their use” (BRISTOL-MYERS SQUIBB COMPANY, priority 2018, dated 2022) are IC50 values, retold here.

Each structure is given as a SMILES string. pIC50: −log10 of the molar value.

For the first assay, the target named is T1, indoleamine 2,3-dioxygenase (IDO) (Homo sapiens, UniProt P14902).
T1 construct: replaced with media containing IFNγ (#285-IF/CF, R&D Systems) at a final concentration of 25 ng/mL; endogenous in cells; host or cells: HeLa (ATCC CCL-2), IFN-gamma stimulated
T1 sequence (P14902 whole entry): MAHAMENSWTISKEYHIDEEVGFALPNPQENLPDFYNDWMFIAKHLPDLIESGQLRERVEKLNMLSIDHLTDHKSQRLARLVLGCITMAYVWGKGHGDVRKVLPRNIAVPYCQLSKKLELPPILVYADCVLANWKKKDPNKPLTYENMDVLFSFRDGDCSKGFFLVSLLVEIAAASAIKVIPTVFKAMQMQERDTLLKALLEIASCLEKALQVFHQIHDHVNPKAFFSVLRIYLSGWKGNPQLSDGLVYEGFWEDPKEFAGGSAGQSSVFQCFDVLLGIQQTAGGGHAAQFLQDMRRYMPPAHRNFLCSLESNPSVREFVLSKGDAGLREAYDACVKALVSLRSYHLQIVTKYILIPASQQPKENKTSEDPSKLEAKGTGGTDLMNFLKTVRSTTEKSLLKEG
The experiment in a line: HeLa cell-based indoleamine 2,3-dioxygenase (IDO) assay, kynurenine production. The settings on record: HeLa cells, IFNγ 25 ng/mL, 48 hour incubation; read-out: IDO Hela IC50. On the procedure: Assessment of Inhibitor Activity in HeLa Cell-Based Indoleamine 23-Dioxygenase (IDO) Assay
Cells were maintained in a humidified incubator at 37° C. in 5% CO2.
IDO activity was assessed as a function of kynurenine production as follows: HeLa cells were seeded in a 96-well culture plate at a density of 5,000 cells/well and allowed to equilibrate overnight. […] A serial dilution of each test compound was added to the cells in a total volume of 200 μL of culture medium. After a further 48 hour incubation, 170 μL of supernatant was transferred from each well to a fresh 96-well plate. 12.1 μL of 6.1N trichloroacetic acid (#T0699, Sigma-Aldrich) was added to each well and mixed, followed by incubation at 65° C. for 20 minutes to hydrolyze N-formylkynurenine, the product of indoleamine 2,3-dioxygenase, to kynurenine. The reaction mixture was then centrifuged for 10 mins at 500×g to sediment the precipitate. 100 μL of the supernatant was transferred from each well to a fresh 96-well plate. […] Kynurenine concentrations were determined by measuring absorbance at 480 nm and calibrating against an L-kynurenine (#K8625, Sigma-Aldrich) standard curve using a SPECTRAMAX® M2e microplate reader (Molecular Devices). The percentage activity at each inhibitor concentration was determined and IC50 values assessed using nonlinear regression.
With `CCO[C@@H](c1ccc([C@@H](CC)CC(=O)O)cc1Nc1ccc(F)cc1)C(F)(F)F` (single isomer, unassigned) [Example 51], the negative-log IC50 (pIC50) is 7.70.

In the case of `CCO[C@@H](c1ccc([C@@H](CC)CC(=O)O)cc1NC(=O)Nc1ccc(C)cc1)C(F)(F)F` (single isomer, unassigned) [Example 41], the negative logarithm of the IC50 (pIC50) is 7.70.

Regarding `CC[C@@H](CC(=O)O)c1ccc([C@H](OC)C(F)(F)F)c(Nc2cnc(C(F)(F)F)nc2)c1` (single isomer, unassigned) [Example 100], the pIC50 was 8.00.

Consider `CC[C@@H](CC(=O)O)c1ccc([C@H](OC)C(F)(F)F)c(Nc2cnc(C)nc2)c1` (single isomer, unassigned) [Example 98], for which the pIC50 is 6.82.

`CCO[C@H](c1ccc([C@@H](COC)CC(=O)O)cc1Nc1cnc(OC)nc1)C(F)(F)F` (single isomer, unassigned) [Example 62]: the pIC50 was 7.40.

Turning to `CCO[C@H](c1ccc([C@H](CC)CC(=O)O)cc1Nc1cnc(CC)nc1)C(F)(F)F` (relative stereo) [Example 18, (R)-3-(4-((R)-1-ethoxy-2,2,2-trifluoroethyl)-3-((2-ethylpyrimidin-5-yl)amino)phenyl)pentanoic acid], the negative-log IC50 (pIC50) is 7.40.

In the case of `CCO[C@@H](c1ccc([C@H](CC)CC(=O)O)cc1Nc1cnc(C)nc1)C(F)(F)F` (single isomer, unassigned) [Example 39], the negative-log IC50 (pIC50) was 7.00.

With `CCOc1ncc(Nc2cc([C@H](CC)CC(=O)O)ccc2[C@@H](CC)C2CCOCC2)cn1` (single isomer, unassigned) [Example 125-1], the negative logarithm of the IC50 (pIC50) was 7.40.

As to `CCO[C@H](c1ccc([C@@H](COC)CC(=O)O)cc1Nc1ccc(C#N)cc1)C(F)(F)F` (single isomer, unassigned) [Example 65], the pIC50 is 8.00.

Turning to `CC[C@H](CC(=O)O)c1ccc([C@@H](CC)C2CCOCC2)c(Nc2ccc(COC)nc2)c1` (single isomer, unassigned) [Example 129], the pIC50 is 6.51.

For `CC[C@@H](CC(=O)O)c1ccc([C@@H](CC)N2CCOCC2)c(Nc2ccc(Cl)cc2)c1` (single isomer, unassigned) [Example 132], the pIC50 is 7.15.

Take `CCO[C@@H](c1ccc([C@H](COC)CC(=O)O)cc1Nc1cnc(OC)nc1)C(F)(F)F` (single isomer, unassigned) [Example 69]: the negative-log IC50 (pIC50) was 6.21.

On to `CCO[C@@H](c1ccc([C@H](COC)CC(=O)O)cc1Nc1ccc(Cl)cc1)C(F)(F)F` (single isomer, unassigned) [Example 72], for which the pIC50 is 8.00.

For the compound `CCOc1ncc(Nc2cc([C@H](CC)CC(=O)O)ccc2[C@@H](OCC)C(F)(F)F)cn1` (single isomer, unassigned) [Example 12], the pIC50 is 7.70.

In the case of `CCO[C@H](c1ccc([C@@H](CC)CC(=O)O)cc1NC(=O)Nc1ccc(Cl)cc1F)C(F)(F)F` (single isomer, unassigned) [Example 20], the negative logarithm of the IC50 (pIC50) is 8.00.

Take `CCO[C@H](c1ccc([C@H](CC)CC(=O)O)cc1Nc1cnc(OC)cn1)C(F)(F)F` (single isomer, unassigned) [Example 14]: the negative logarithm of the IC50 (pIC50) is 8.00.

Regarding `CCOc1ncc(Nc2cc([C@@H](CC)CC(=O)O)ccc2[C@H](OC)C(F)(F)F)cn1` (single isomer, unassigned) [Example 99], the pIC50 was 7.52.

For the compound `CCO[C@H](c1ccc([C@@H](CC)CC(=O)O)cc1Nc1cnc(COC)nc1)C(F)(F)F` (single isomer, unassigned) [Example 27], the negative-log IC50 (pIC50) was 7.05.

In the case of `CCO[C@@H](c1ccc([C@@H](CC)CC(=O)O)cc1Nc1cnc(OC)nc1)C(F)(F)F` (single isomer, unassigned) [Example 43], the negative logarithm of the IC50 (pIC50) was 8.00.

As to `CCO[C@@H](c1ccc([C@@H](COC)CC(=O)O)cc1Nc1cnc(OC)nc1)C(F)(F)F` (single isomer, unassigned) [Example 76], the pIC50 was 6.15.

`CC[C@@H](CC(=O)O)c1ccc([C@@H](OC)C(F)(F)F)c(Nc2cnc(C)nc2)c1` (single isomer, unassigned) [Example 86]: the negative logarithm of the IC50 (pIC50) was 6.35.

Regarding `CCO[C@H](c1ccc([C@@H](CC)CC(=O)O)cc1Nc1cnc(OC)nc1)C(F)(F)F` (single isomer, unassigned) [Example 22], the pIC50 was 8.00.

For the compound `CCO[C@H](c1ccc([C@@H](COC)CC(=O)O)cc1NC(=O)Nc1ccc(Cl)cc1F)C(F)(F)F` (single isomer, unassigned) [Example 61], the pIC50 is 6.72.

As for `CC[C@H](CC(=O)O)c1ccc([C@@H](OC)C(F)(F)F)c(Nc2cnc(C(F)(F)F)nc2)c1` (single isomer, unassigned) [Example 92], the negative logarithm of the IC50 (pIC50) was 8.00.

Turning to `CCO[C@H](c1ccc([C@H](COC)CC(=O)O)cc1Nc1cnc(OC)nc1)C(F)(F)F` (relative stereo) [Example 54, 3-(4-(1-ethoxy-2,2,2-trifluoroethyl)-3-((2-methoxypyrimidin-5-yl)amino)phenyl)-4-methoxybutanoic Acid], the negative-log IC50 (pIC50) was 7.00.

On to `CCO[C@H](c1ccc([C@H](CC)CC(=O)O)cc1Nc1cnc(C)nc1)C(F)(F)F` (relative stereo) [Example 17, (R)-3-(4-((R)-1-ethoxy-2,2,2-trifluoroethyl)-3-((2-methylpyrimidin-5-yl)amino)phenyl)pentanoic acid], for which the pIC50 was 6.89.

`CCOc1ncc(Nc2cc([C@H](CC)CC(=O)O)ccc2[C@@H](OC)C(F)(F)F)cn1` (single isomer, unassigned) [Example 91]: the negative logarithm of the IC50 (pIC50) was 7.52.

Regarding `CC[C@H](c1ccc([C@@H](COC)CC(=O)O)cc1Nc1ccc(Cl)cc1)N1CCOCC1` (relative stereo) [Example 110, (S)-3-(3-((4-chlorophenyl)amino)-4-((R)-1-morpholinopropyl)phenyl)-4-methoxybutanoic acid], the pIC50 is 6.42.

On to `CCO[C@@H](c1ccc([C@H](CC)CC(=O)O)cc1Nc1cnc(OC)cn1)C(F)(F)F` (relative stereo) [Example 36, (R)-3-(4-((S)-1-ethoxy-2,2,2-trifluoroethyl)-3-((5-methoxypyrazin-2-yl)amino)phenyl)pentanoic acid], for which the negative-log IC50 (pIC50) was 7.52.

With `CCO[C@H](c1ccc([C@H](COC)CC(=O)O)cc1NC(=O)Nc1ccc(Cl)cc1F)C(F)(F)F` (single isomer, unassigned) [Example 53], the negative logarithm of the IC50 (pIC50) was 7.40.

Staying with this assay, now noted: HeLa cells, IFNγ 25 ng/mL, 48 hour incubation; read-out: IDO Hela IC50 class (A < 50, B < 250, C < 2000).
As to `CCO[C@@H](c1ccc([C@@H](CC)CC(=O)O)cc1Nc1ccc(F)cc1)C(F)(F)F` (single isomer, unassigned) [Example 51], the pIC50 was greater than 7.30.

As to `CCOc1ncc(Nc2cc([C@H](CC)CC(=O)O)ccc2[C@H](CC)C2CCOCC2)cn1` (single isomer, unassigned) [Example 125-2], the pIC50 was greater than 7.30.

For the compound `CC[C@@H](c1ccc([C@@H](COC)CC(=O)O)cc1Nc1ccc(COC)nc1)N1CCOCC1` (single isomer, unassigned) [Example 104], the pIC50 was 5.70 to 6.60.

`CC[C@H](c1ccc([C@@H](COC)CC(=O)O)cc1Nc1ccc(F)cc1)N1CCOCC1` (single isomer, unassigned) [Example 111]: the pIC50 was 5.70 to 6.60.

Turning to `CC[C@@H](CC(=O)O)c1ccc([C@@H](CC)N2CCOCC2)c(Nc2ccc(COC)nc2)c1` (relative stereo) [Example 131, (S)-3-(3-((6-(methoxymethyl)pyridin-3-yl)amino)-4-((R)-1-morpholinopropyl)phenyl)pentanoic acid], the pIC50 was 5.70 to 6.60.

Consider `CC[C@@H](CC(=O)O)c1ccc([C@@H](OC)C(F)(F)F)c(Nc2ccc(Cl)cc2)c1` (single isomer, unassigned) [Example 83-1], for which the pIC50 is greater than 7.30.

As for `CCO[C@@H](c1ccc([C@H](COC)CC(=O)O)cc1Nc1ncc(F)cn1)C(F)(F)F` (single isomer, unassigned) [Example 71], the pIC50 was 5.70 to 6.60.

`CC[C@H](CC(=O)O)c1ccc([C@@H](CC)C2CCOCC2)c(Nc2ccc(COC)nc2)c1` (single isomer, unassigned) [Example 129]: the pIC50 is 6.60 to 7.30.

`CCO[C@H](c1ccc([C@H](COC)CC(=O)O)cc1Nc1cnc(C)nc1)C(F)(F)F` (single isomer, unassigned) [Example 59]: the pIC50 is 5.70 to 6.60.

In the case of `CCc1ncc(Nc2cc([C@@H](COC)CC(=O)O)ccc2[C@@H](CC)N2CCOCC2)cn1` (relative stereo) [Example 107, (S)-3-(3-((2-ethylpyrimidin-5-yl)amino)-4-((R)-1-morpholinopropyl)phenyl)-4-methoxybutanoic acid], the pIC50 was 5.70 to 6.60.

For the compound `CC[C@H](CC(=O)O)c1ccc([C@H](OC)C(F)(F)F)c(Nc2ccc(Cl)cc2)c1` (single isomer, unassigned) [Example 84-1], the pIC50 is greater than 7.30.

Consider `CCO[C@H](c1ccc([C@@H](CC)CC(=O)O)cc1Nc1cnc(C)nc1)C(F)(F)F` (single isomer, unassigned) [Example 28], for which the negative-log IC50 (pIC50) was greater than 7.30.

In the case of `CCO[C@@H](c1ccc([C@H](CC)CC(=O)O)cc1NC(=O)Nc1ccc(Cl)cc1F)C(F)(F)F` (single isomer, unassigned) [Example 32], the negative-log IC50 (pIC50) was greater than 7.30.

Consider `CC[C@H](c1ccc([C@@H](COC)CC(=O)O)cc1Nc1ccc(Cl)cc1)N1CCOCC1` (relative stereo) [Example 110, (S)-3-(3-((4-chlorophenyl)amino)-4-((R)-1-morpholinopropyl)phenyl)-4-methoxybutanoic acid], for which the pIC50 was 6.60 to 7.30.

For `CC[C@@H](CC(=O)O)c1ccc([C@H](OC)C(F)(F)F)c(Nc2ccc(Cl)cc2)c1` (single isomer, unassigned) [Example 84-2], the pIC50 was greater than 7.30.
